The test system of one experiment is SW1990. In words: Tumor growth inhibition in vivo, SW1990 pancreatic cancer model. Also on record: species or system CB17 SCID female mice. As to conditions: dosed intravenously (IV). The method, then:
(§1) The effect on tumor growth of treatment with Compound 69 and 102 was assessed in the GP2d (95090714 Millipore Sigma, USA) and LS180 (CL-187 ATCC, USA) colorectal cancer models, and the AsPC-1 (CRL-1682 ATCC, USA), SW1990 (CRL-2172, ATCC, USA), HPAC (CRL-2119 ATCC, USA), and Panc04.03 (CRL-2555 ATCC, USA) pancreatic cancer models. Briefly, cells were grown in HYPER flasks (Corning) and harvested and prepared for implant by preparing a suspension with a final concentration of 25×10^6 cells/ml in 50% matrigel (Corning) and 50% phenol red-free media (Gibco DMEM or RPMI-1640, depending on cell line). For Panc04.03, 6-7 week NOD/SCID female mice (GemPharmatech Co. Ltd) were inoculated with 200 μl of the cell suspension ([…]) subcutaneously on the left flank under sterile conditions. For all other cell lines, 6-8 weeks old CB17 SCID female mice (Charles River Laboratories) were inoculated with 200 μl of the cell suspension (5 million cells/mouse) subcutaneously on the left flank under sterile conditions. Studies were initiated when tumors reached an average of approximately 200 mm^3. […] Tumor growth inhibition (TGI) was calculated using the formula % TGI=(VC−VT)/(VC−V0)×100 where VC, VT are the average of control and treated groups at the end of the study, and V0 is the average tumor volume at randomization.

A further experiment relates to AsPC-1. In words: Tumor growth inhibition in vivo, AsPC-1 pancreatic cancer model. Also on record: species or system CB17 SCID female mice. The note with it: AsPC-1 model, dosed intravenously (IV). The method, then:
as §1

A further experiment has as its target T1, KRas-G12D (Homo sapiens, UniProt P01116, G12D).
T1 construct: insert the HiBiT tag onto the N-terminus of one or more of the endogenous KRas alleles; host or cells: AsPC-1 HiBiT-KRasG12D knock-in clone (one tagged allele, two untagged KRasG12D alleles)
In words: HiBiT Degradation Assay (G12D), AsPC-1 HiBiT-KRasG12D cells, 24 hr. The format is cell-based. As to conditions: for Dmax: ASPC1, AsPC-1 cells, maximum degradation observed; for DC50: AsPC-1 cells. Put shortly:
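AsPC-1 cells with CRISPR N-terminal HiBiT knock-in on one endogenous KRasG12D allele, treated 24 hr at 37° C with compound titrations in 0.5% DMSO. Lytic HiBiT luminescence normalized to DMSO, fitted to a 4-parameter model for DC50 and Dmax. Parallel alamar blue (4 hr) checked viability.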
For orientation: The HiBiT peptide binds its large partner to form an active luciferase.

Another experiment relates to Panc04.03. In words: Tumor growth inhibition in vivo, Panc04.03 pancreatic cancer model. Also on record: species or system NOD/SCID female mice. The note with it: Panc04.03 model, dosed intravenously (IV). The method, then: as §1
For another experiment, the system named is HPAC. The experiment can be described thus: Tumor growth inhibition in vivo, HPAC pancreatic cancer model. As to conditions: dosed intravenously (IV). Also on record: species or system CB17 SCID female mice. On the procedure: as §1
Another experiment has as its system LS180. The experiment can be described thus: Tumor growth inhibition in vivo, LS180 colorectal cancer model. Also on record: species or system CB17 SCID female mice. The note with it: dosed intravenously (IV). On the procedure:
as §1

The next experiment concerns GP2d. In words: Tumor growth inhibition in vivo, GP2d colorectal cancer model. Also on record: species or system CB17 SCID female mice. The note with it: dosed intravenously (IV). On the procedure:
as §1

Results on two compounds are retold here after US12448399B2, “Cereblon-based KRAS degrading PROTACs and uses related thereto” (Arvinas Operations, Inc., priority 2023, dated 2025).

T1 sequence (P01116 1-188 isoform P01116-2 G12D): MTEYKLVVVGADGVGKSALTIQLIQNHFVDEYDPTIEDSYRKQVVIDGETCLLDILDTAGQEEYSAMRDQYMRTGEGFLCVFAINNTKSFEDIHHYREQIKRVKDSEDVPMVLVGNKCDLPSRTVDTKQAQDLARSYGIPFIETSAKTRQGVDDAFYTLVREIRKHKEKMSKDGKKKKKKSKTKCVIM

On to `C#Cc1c(F)ccc2cc(O)cc(-c3ncc4c(N5CC6CCC(C5)N6)nc(OCCN5CCC(CC6CCN(CC7CCN(c8ccc9c(c8F)CN(C8CCC(=O)NC8=O)C9=O)CC7)CC6)CC5)nc4c3F)c12` (stereo not shown) [Compound 69, 3-[5-[4-[[4-[[1-[2-[4-(3,8-diazabicyclo[3.2.1]octan-3-yl)-7-(8-ethynyl-7-fluoro-3-hydroxy-1-naphthyl)-8-fluoro-pyrido[4,3-d]pyrimidin-2-yl]oxyethyl]-4-piperidyl]methyl]-1-piperidyl]methyl]-1-piperidyl]-4-fluoro-1-oxo-isoindolin-2-yl]piperidine-2,6-dione], for which the “Tumor growth inhibition (TGI)” value with SW1990, in the experiment with Panc04.03, in the experiment on HPAC, in the experiment with LS180 and in the experiment with GP2d was “robust TGI” in each case. For the same compound, the Tumor growth response result with AsPC-1 is “More moderate response”. At KRas-G12D, the Dmax is greater than 70%. In addition, on KRas-G12D, the 50% degradation concentration (DC50) was less than 5.1 µM.
Regarding `C#Cc1c(F)ccc2cc(O)cc(-c3ncc4c(N5CC6CCC(C5)N6)nc(OCCN5CCC(CC6CCN(CC7CCN(c8ccc9c(c8)n(C)c(=O)n9C8CCC(=O)NC8=O)CC7)CC6)CC5)nc4c3F)c12` (stereo not shown) [Compound 102, 3-[5-[4-[[4-[[1-[2-[4-(3,8-diazabicyclo[3.2.1]octan-3-yl)-7-(8-ethynyl-7-fluoro-3-hydroxy-1-naphthyl)-8-fluoro-pyrido[4,3-d]pyrimidin-2-yl]oxyethyl]-4-piperidyl]methyl]-1-piperidyl]methyl]-1-piperidyl]-3-methyl-2-oxo-benzimidazol-1-yl]piperidine-2,6-dione], the “Tumor growth inhibition (TGI)” value in the experiment on SW1990, with Panc04.03, in the experiment on HPAC, with LS180 and with GP2d was “robust TGI” in each case. Besides, in the experiment on AsPC-1, the tumour growth inhibition (TGI) turned out to be 100%. Also, the Dmax at KRas-G12D was greater than 70%. The DC50 on KRas-G12D was less than 5.1 µM.

The term Dmax denotes the largest share of the target that was removed. In general, DC50 refers to the concentration at which degradation of the target reaches its halfway point. A high value points to a less potent degrader. The TGI is the reduction of tumour growth relative to the control group. A lower TGI goes with little slowing of growth.
